Molecular target: T1, Sp-Fld (Sp-flavodoxin) (Streptococcus pneumoniae, UniProt Q8DPG4)
T1 sequence (Q8DPG4 1-147): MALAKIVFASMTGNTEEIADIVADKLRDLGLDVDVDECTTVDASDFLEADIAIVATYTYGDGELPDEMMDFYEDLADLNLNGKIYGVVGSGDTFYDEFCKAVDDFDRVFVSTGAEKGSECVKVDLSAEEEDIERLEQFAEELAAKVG
Test: isothermal titration calorimetry
Type: binding

Kd: 2500 ± 400 nM
Structure (SMILES): N[C@@H](Cc1cc(I)c(Oc2cc(I)c(O)c(I)c2)c(I)c1)C(=O)O [Cp1, L-thyroxine]

Reference: PMC11059415 (Heliyon, 2024)
